According to ChEMBL document CHEMBL3351486 (Bioorg Med Chem Lett, 2014):
The source made the active and inactive calls. The calls are words filed in the database; no cut-off is given here.

Key:
[1] = Cytotoxicity against Remb1 cells (unknown origin) assessed as cell killing after 24 hrs by MTT assay; assay type: functional, cell-based; details: Remb1, 24 h
[2] = Cytotoxicity against BL2/B95 cells (unknown origin) assessed as cell killing after 24 hrs by MTT assay; assay type: functional, cell-based; details: BL2/B95, 24 h
[3] = Cytotoxicity against BL2 cells (unknown origin) assessed as cell killing after 24 hrs by MTT assay; assay type: functional, cell-based; details: BL2, 24 h
Bcl-xL/BAK = Bcl-xL/BAK (Homo sapiens, UniProt Q07817); assay: Inhibition of Bcl-xL/Bak (unknown origin) interaction; assay type: protein assay
Chain of Bcl-xL/BAK (Q07817 whole entry): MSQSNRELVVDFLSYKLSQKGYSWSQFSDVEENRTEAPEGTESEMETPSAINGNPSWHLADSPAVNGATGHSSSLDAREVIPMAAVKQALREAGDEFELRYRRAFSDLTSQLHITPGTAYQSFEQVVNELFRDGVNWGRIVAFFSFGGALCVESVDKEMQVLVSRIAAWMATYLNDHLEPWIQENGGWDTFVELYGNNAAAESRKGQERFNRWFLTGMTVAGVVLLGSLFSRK
Chain of Bcl-xL/BAK (Q16611 whole entry, further chain): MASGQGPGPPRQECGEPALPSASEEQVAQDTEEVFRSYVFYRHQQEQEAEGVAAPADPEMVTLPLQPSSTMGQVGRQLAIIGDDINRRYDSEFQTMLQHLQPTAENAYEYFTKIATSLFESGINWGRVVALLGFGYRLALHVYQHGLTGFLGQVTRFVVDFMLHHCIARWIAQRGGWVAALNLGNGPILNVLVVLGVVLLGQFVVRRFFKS

BL2 = assay: Induction of apoptosis in BL2 cells (unknown origin) assessed as PARP cleavage at 7.5 uM after 24 hrs by Western blot analysis; assay type: functional, cell-based
[4] = Cytotoxicity against BL2 cells (unknown origin) assessed as cell killing at 10 uM after 24 hrs by MTT assay; assay type: functional
[5] = Cytotoxicity against BL2/B95 cells (unknown origin) assessed as cell killing at 10 uM after 24 hrs by MTT assay; assay type: functional
[6] = molecular target: Induced myeloid leukemia cell differentiation protein Mcl-1/BH3-interacting domain death agonist (Homo sapiens, UniProt Q07820); assay: Inhibition of Mcl1/Bid (unknown origin) interaction; assay type: protein assay
Chain of Induced myeloid leukemia cell differentiation protein Mcl-1/BH3-interacting domain death agonist (Q07820 whole entry, the tested form may be a part): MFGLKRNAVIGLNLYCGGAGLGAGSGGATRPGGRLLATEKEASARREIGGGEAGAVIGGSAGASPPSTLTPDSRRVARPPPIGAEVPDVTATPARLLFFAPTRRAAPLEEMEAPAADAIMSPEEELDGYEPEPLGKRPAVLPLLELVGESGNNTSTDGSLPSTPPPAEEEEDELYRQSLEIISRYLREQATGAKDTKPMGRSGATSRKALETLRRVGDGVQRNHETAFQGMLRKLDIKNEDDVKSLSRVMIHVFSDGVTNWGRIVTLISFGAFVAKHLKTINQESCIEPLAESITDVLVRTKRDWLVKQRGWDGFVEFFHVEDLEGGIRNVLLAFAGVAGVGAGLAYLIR
Chain of Induced myeloid leukemia cell differentiation protein Mcl-1/BH3-interacting domain death agonist (P55957 whole entry, further chain, the tested form may be a part): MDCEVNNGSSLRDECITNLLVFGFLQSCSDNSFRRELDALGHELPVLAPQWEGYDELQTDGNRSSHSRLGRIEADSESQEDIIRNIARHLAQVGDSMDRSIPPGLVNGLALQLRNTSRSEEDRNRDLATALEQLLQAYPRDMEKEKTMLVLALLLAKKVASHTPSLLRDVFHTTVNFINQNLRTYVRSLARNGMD

[7] = Cytotoxicity against Remb1 cells (unknown origin) assessed as cell killing at 10 uM after 24 hrs by MTT assay; assay type: functional
[8] = Induction of apoptosis in BL2/B95 cells (unknown origin) at 7.5 uM after 24 hrs by Annexin V/propidium iodide staining-based flow cytometric analysis; assay type: functional
Remb1 = assay: Induction of apoptosis in Remb1 cells (unknown origin) assessed as PARP cleavage at 7.5 uM after 24 hrs by Western blot analysis; assay type: functional, cell-based
[9] = Induction of apoptosis in Remb1 cells (unknown origin) at 7.5 uM after 24 hrs by Annexin V/propidium iodide staining-based flow cytometric analysis; assay type: functional
[10] = Induction of apoptosis in BL2 cells (unknown origin) at 7.5 uM after 24 hrs by Annexin V/propidium iodide staining-based flow cytometric analysis; assay type: functional
BL2/B95 = assay: Induction of apoptosis in BL2/B95 cells (unknown origin) assessed as PARP cleavage at 7.5 uM after 24 hrs by Western blot analysis; assay type: functional, cell-based

Row | Ki (Bcl-xL/BAK) [µM] | SMILES | IC50 [1] [µM] | IC50 [2] [µM] | IC50 [3] [µM] | Activity (BL2) | Activity [4] [%] | Activity [5] [%] | Ki [6] [µM] | Activity [7] [%] | Activity [8] [%] | Activity (Remb1) | Activity [9] [%] | Activity [10] [%] | Activity (BL2/B95)
1 | – | CC(C)=CCC[C@@H](C)[C@@H]1C=C[C@]2(C(=O)O)[C@@H](CC(C)=C[C@H]2/C=C(\C)[C@H]2CC[C@H](C(=O)O)CC2)C1 | > 20 | > 20 | > 20 | – | – | – | – | – | – | – | – | – | –
2 | – | CC(C)=CCC[C@H](C)[C@H]1C=C[C@@]2(C(=O)O)[C@H](CC(C)=C[C@@H]2/C=C(\C)[C@H]2CC[C@H](C(=O)O)CC2)C1 | > 20 | > 20 | > 20 | – | – | – | – | – | – | – | – | – | –
3 | 4.6 | CC(C)=CCC[C@@H](C)[C@@H]1C=C[C@]2(C(=O)O)[C@@H](CC(C)=C[C@H]2/C=C(\C)c2ccc(C(=O)O)cc2)C1 | 8.6 | 8.6 | 8.5 | Active | >50 | >50 | 9.1 | >50 | 52 | Active | 54 | 71 | Active
4 | – | CC(C)=CCC[C@@H](C)[C@H]1C=C[C@@]2(C(=O)O)[C@H](CC(C)=C[C@@H]2/C=C(\C)[C@H]2CC[C@H](C(=O)O)CC2)C1 | > 20 | > 20 | > 20 | – | – | – | – | – | – | – | – | – | –
5 | 7.5 | CC(C)=CCC[C@H](C)[C@@H]1C=C[C@]2(C(=O)O)[C@@H](CC(C)=C[C@H]2/C=C(\C)c2ccc(C(=O)O)cc2)C1 | > 20 | > 20 | > 20 | – | – | – | 15.9 | – | – | – | – | – | –
